Assay: D90 particle size of atovaquone by Malvern Mastersizer
Format: physicochemical
Protocol: […]

[1] = Run 1, stir time 1 min, 30 mg in 900 mL purified water, polysorbate 80, 10 min sonication, 400 rpm

SMILES | D90 particle size [1] [microns] | D90 particle size (Run 1, stir time 2 min) [microns] | D90 particle size (Run 1, stir time 3 min) [microns] | D90 particle size (Run 1, stir time 4 min) [microns] | D90 particle size (Run 1, stir time 5 min) [microns] | D90 particle size (Run 2, stir time 1 min) [microns] | D90 particle size (Run 2, stir time 2 min) [microns] | D90 particle size (Run 2, stir time 3 min) [microns] | D90 particle size (Run 2, stir time 4 min) [microns] | D90 particle size (Run 2, stir time 5 min) [microns] | D90 particle size (Run 3, stir time 1 min) [microns] | D90 particle size (Run 3, stir time 2 min) [microns] | D90 particle size (Run 3, stir time 3 min) [microns] | D90 particle size (Run 3, stir time 4 min) [microns] | D90 particle size (Run 3, stir time 5 min) [microns] | D90 particle size (Run 4, stir time 1 min) [microns] | D90 particle size (Run 4, stir time 2 min) [microns] | D90 particle size (Run 4, stir time 3 min) [microns] | D90 particle size (Run 4, stir time 4 min) [microns] | D90 particle size (Run 4, stir time 5 min) [microns]
O=C1C(O)=C([C@H]2CC[C@H](c3ccc(Cl)cc3)CC2)C(=O)c2ccccc21 [Example 1, trans-2-[4-(4-chlorophenyl)cyclohexyl]-3-hydroxy-1,4-naphthalenedione] | 5.088 | 5.089 | 5.090 | 5.088 | 5.088 | 5.182 | 5.183 | 5.182 | 5.183 | 5.184 | 5.049 | 5.049 | 5.048 | 5.047 | 5.048 | 5.283 | 5.282 | 5.283 | 5.284 | 5.281
O=C1C(O)=C([C@H]2CC[C@H](c3ccc(Cl)cc3)CC2)C(=O)c2ccccc21 [Example 2, trans-2-[4-(4-chlorophenyl)cyclohexyl]-3-hydroxy-1,4-naphthalenedione] | 6.177 | 6.176 | 6.175 | 6.176 | 6.176 | 6.258 | 6.257 | 6.258 | 6.260 | 6.259 | 6.338 | 6.339 | 6.336 | 6.339 | 6.337 | 6.572 | 6.572 | 6.572 | 6.569 | 6.571
O=C1C(O)=C([C@H]2CC[C@H](c3ccc(Cl)cc3)CC2)C(=O)c2ccccc21 [Example 3, trans-2-[4-(4-chlorophenyl)cyclohexyl]-3-hydroxy-1,4-naphthalenedione] | 4.280 | 4.280 | 4.280 | 4.280 | 4.280 | 4.260 | 4.260 | 4.261 | 4.261 | 4.260 | 4.124 | 4.124 | 4.123 | 4.123 | 4.125 | 4.285 | 4.285 | 4.286 | 4.286 | 4.286

More lines, now with the values ahead:

D90 particle size [1] [microns] | D90 particle size (Run 1, stir time 2 min) [microns] | D90 particle size (Run 1, stir time 3 min) [microns] | D90 particle size (Run 1, stir time 4 min) [microns] | D90 particle size (Run 1, stir time 5 min) [microns] | D90 particle size (Run 2, stir time 1 min) [microns] | D90 particle size (Run 2, stir time 2 min) [microns] | D90 particle size (Run 2, stir time 3 min) [microns] | D90 particle size (Run 2, stir time 4 min) [microns] | D90 particle size (Run 2, stir time 5 min) [microns] | D90 particle size (Run 3, stir time 1 min) [microns] | D90 particle size (Run 3, stir time 2 min) [microns] | D90 particle size (Run 3, stir time 3 min) [microns] | D90 particle size (Run 3, stir time 4 min) [microns] | D90 particle size (Run 3, stir time 5 min) [microns] | D90 particle size (Run 4, stir time 1 min) [microns] | D90 particle size (Run 4, stir time 2 min) [microns] | D90 particle size (Run 4, stir time 3 min) [microns] | D90 particle size (Run 4, stir time 4 min) [microns] | D90 particle size (Run 4, stir time 5 min) [microns] | SMILES
4.651 | 4.652 | 4.652 | 4.653 | 4.651 | 4.628 | 4.628 | 4.629 | 4.631 | 4.630 | 4.836 | 4.836 | 4.837 | 4.836 | 4.984 | 4.814 | 4.814 | 4.815 | 4.814 | 4.814 | O=C1C(O)=C([C@H]2CC[C@H](c3ccc(Cl)cc3)CC2)C(=O)c2ccccc21 [Example 4, trans-2-[4-(4-chlorophenyl)cyclohexyl]-3-hydroxy-1,4-naphthalenedione]
7.971 | 7.949 | 8.215 | 8.276 | 7.948 | 7.726 | 7.723 | 7.726 | 7.727 | 7.723 | 7.978 | 7.974 | 7.977 | 7.979 | 7.973 |  |  |  |  |  | O=C1C(O)=C([C@H]2CC[C@H](c3ccc(Cl)cc3)CC2)C(=O)c2ccccc21 [Example 5, trans-2-[4-(4-chlorophenyl)cyclohexyl]-3-hydroxy-1,4-naphthalenedione]

Source: patent US20110206770A1, “ATOVAQUONE WITH A PARTICLE SIZE DIAMETER RANGE (D90) OF GREATER THAN 3 MICRONS TO ABOUT 10 MICRONS” (Alphapharm Pty. Ltd., priority 2008, published 2011)
